# Laboratory results taken from patent US4048431A, “Alkylated derivatives of antibiotic BM123γ” (American Cyanamid Company, priority 1975, dated 1977).
# Test system: Escherichia coli US311
# Test: in vivo protection of mice against lethal Escherichia coli US311 infection (single subcutaneous dose)
# Set-up: species or system Escherichia coli US311 in Carworth Farms CF-1 mice
# Conditions: Carworth Farms CF-1 mice, about 20 gm., infected intraperitoneally with lethal dose of E. coli US311 (10^-3 TSP dilution of 5 hour TSP blood culture)
# Method: These new substances show high in vivo antibacterial activity in mice against Escherichia coli US311 when administered by a single subcutaneous dose to groups of Carworth Farms CF-1 mice, weight about 20 gm., infected intraperitoneally with a lethal dose of this bacteria in a 10^- 3 trypticase soy broth TSP dilution of a 5 hour TSP blood culture. In Table VI below is set forth the in vivo activity of typical products of this invention (prepared from the indicated carbonyl reagents) against Escherichia coli US311 in mice. The activity is expressed in terms of the ED50 or the dose in mg./kg. of body weight required to protect 50% of the mice against E. coli.
row,Substance,ED50 (dose required to protect 50% of the mice against E. coli)
1,1-methyl-2-chloro-2-carbethoxyethyl-BM123γ,1.5 mg./kg. of body weight
2,1-ethyl-3-chloropropyl-BM123γ,0.12 mg./kg. of body weight
3,2-cyclohexylcyclohexyl-BM123γ,0.75 mg./kg. of body weight
4,1-carbomethoxy-2-carbomethoxyethyl-BM123γ,0.75 mg./kg. of body weight
5,(1-methylcyclo-3-hexenyl)methyl-BM123γ,0.18 mg./kg. of body weight
6,1-ethylhexyl-BM123γ,0.18 mg./kg. of body weight
7,1-methyl-2-(3-methoxyphenyl)ethyl-BM123γ,0.30 mg./kg. of body weight
8,1-methyldecyl-BM123γ,> 2 mg./kg. of body weight
9,1-cyclopropylethyl-BM123γ,0.25 mg./kg. of body weight
10,2-(tert-butylcarbamoyl)-1-methyl-ethyl-BM123γ,0.38 mg./kg. of body weight
11,1-methyl-2-methoxyethyl-BM123γ,0.3 mg./kg. of body weight
12,"1,2,3-trimethylpentyl-BM123γ",0.39 mg./kg. of body weight
13,2-methylcyclopentyl-BM123γ,0.25 mg./kg. of body weight
14,"1,2,2-dimethylhydroxypropyl-BM123γ",0.18 mg./kg. of body weight
15,"1,2-dimethylpentyl-BM123γ",0.18 mg./kg. of body weight
16,"1,3,3-trimethylcyclopentyl-BM123γ",0.37 mg./kg. of body weight
17,bicyclo[3.2.1]octanyl-2-BM123γ,< 0.25 mg./kg. of body weight
18,3-quinuclidinyl-BM123γ,0.39 mg./kg. of body weight
19,"1,3-dimethylpentyl-BM123γ",< 0.12 mg./kg. of body weight
20,1-methyl-3-phenylpropyl-BM123γ,0.38 mg./kg. of body weight
21,1-ethylbutyl-BM123γ,0.39 mg./kg. of body weight

row,Substance,ED50 (dose required to protect 50% of the mice against E. coli)
1,1-methyl-4-chlorobutyl-BM123γ,0.37 mg./kg. of body weight
2,1-methyl-4-piperidyl-BM123γ,0.75 mg./kg. of body weight
3,cyclononyl-BM123γ,0.18 mg./kg. of body weight
4,"1,2-dimethylpropyl-BM123γ",0.19 mg./kg. of body weight
5,1-methyl-2-phenoxyethyl-BM123γ,0.3 mg./kg. of body weight
6,1-methyl-3-phenylpropen(-2-)yl-BM123γ,0.25 mg./kg. of body weight
7,decahydro-1-methyl-2-naphthyl-BM123γ,0.25 mg./kg. of body weight
8,trans-2-methyl-2-pentenyl-BM123γ,0.18 mg./kg. of body weight
9,1-[(dimethoxyphosphinyl)methyl]-hexyl-BM123γ,0.3 mg./kg. of body weight
10,2-phenylethyl-BM123γ,0.18 mg./kg. of body weight
11,1-[5-norbornene(2)]ethyl-BM123γ,< 0.12 mg./kg. of body weight
12,"3,5-dimethylcyclohexyl-BM123γ",< 0.12 mg./kg. of body weight
13,2-(p-methoxyphenyl)ethyl-BM123γ,0.18 mg./kg. of body weight
14,2-acetamido-1-methylpropyl-BM123γ,0.50 mg./kg. of body weight
15,1-methyl-2-ethylbutyl-BM123γ,0.18 mg./kg. of body weight
16,isopropyl-BM123γ,< 0.12 mg./kg. of body weight
17,1-methylpropyl-BM123γ,< 0.12 mg./kg. of body weight
18,1-methyl-2-carboethoxypropyl-BM123γ,0.18 mg./kg. of body weight
19,1-methyl-penten(-4-)yl-BM123γ,0.38 mg./kg. of body weight
20,"2-ethyl-2-(3,4-dimethoxyphenyl)ethyl-BM123γ",1.0 mg./kg. of body weight
21,2-ethylcyclopentyl-BM123γ,0.12 mg./kg. of body weight

row,Substance,ED50 (dose required to protect 50% of the mice against E. coli)
1,1-methylpentyl-BM123γ,0.38 mg./kg. of body weight
2,"2,4-dimethylcyclopentyl-BM123γ",0.18 mg./kg. of body weight
3,1-methyl-hexen-4-yl-BM123γ,0.18 mg./kg. of body weight
4,"1,2,2-trimethylpropyl-BM123γ",< 0.12 mg./kg. of body weight
5,3-methyl-6-isopropylcyclohexyl-BM123γ,0.38 mg./kg. of body weight
6,1-propylbutyl-BM123γ,0.25 mg./kg. of body weight
7,2-(1-cyclohexen)cyclohexyl-BM123γ,0.19 mg./kg. of body weight
8,1-methylhexyl-BM123γ,0.38 mg./kg. of body weight
9,"1-methyl-2-(N,N-dimethylamino)propyl-BM123γ",1.5 mg./kg. of body weight
10,"2,2-dimethylbutyl-BM123γ",0.12 mg./kg. of body weight
11,1-ethyloctyl-BM123γ,0.25 mg./kg. of body weight
12,"1,2-dimethyl-3-hydroxypropyl-BM123γ",0.12 mg./kg. of body weight
13,1-methylnonyl-BM123γ,0.18 mg./kg. of body weight
14,"1,2,4-trimethylheptyl-BM123γ",0.37 mg./kg. of body weight
15,1-methyl-2-phenylethyl-BM123γ,0.18 mg./kg. of body weight
16,3-methylcyclopentyl-BM123γ,0.25 mg./kg. of body weight
17,1-methyl-2-(3-chlorophenyl)ethyl-BM123γ,0.38 mg./kg. of body weight
18,1-methyl-3-(4-hydroxyphenyl)ethyl-BM123γ,0.3 mg./kg. of body weight
19,ethyl-BM123γ,0.38 mg./kg. of body weight
20,norbornyl-BM123γ,0.18 mg./kg. of body weight
21,"1-methyl-2,2-dimethoxyethyl-BM123γ",0.5 mg./kg. of body weight

row,Substance,ED50 (dose required to protect 50% of the mice against E. coli)
1,1-cyclohexylpropyl-BM123γ,0.37 mg./kg. of body weight
2,"1,3-dimethylbuten(-2-)yl-BM123γ",0.3 mg./kg. of body weight
3,2-ethylidenecyclohexyl-BM123γ,0.12 mg./kg. of body weight
4,2-ethyl-2-butenyl-BM123γ,0.18 mg./kg. of body weight
5,"1-methyl-3,3-dimethoxypropyl-BM123γ",0.75 mg./kg. of body weight
6,2-ethylhexyl-BM123γ,0.37 mg./kg. of body weight
7,1-methyltridecyl-BM123γ,2.0 mg./kg. of body weight
8,1-ethylpentyl-BM123γ,0.25 mg./kg. of body weight
9,1-(3-pyridyl)ethyl-BM123γ,0.75 mg./kg. of body weight
10,cyclobutyl-BM123γ,0.38 mg./kg. of body weight
11,"1,3-dimethylhexyl-BM123γ",0.5 mg./kg. of body weight
12,trans-2-methyl-2-butenyl-BM123γ,0.18 mg./kg. of body weight
13,1-methyl-butyn(-2-)yl-BM123γ,< 2.0 mg./kg. of body weight
14,"2,2,4,4-tetramethylcyclopentyl-BM123γ",0.75 mg./kg. of body weight
15,1-methylheptyl-BM123γ,0.38 mg./kg. of body weight
16,1-methyl-2-(β-indolyl)ethyl-BM123γ,0.12 mg./kg. of body weight
17,4-t-butylcyclohexyl-BM123γ,0.12 mg./kg. of body weight
18,"1-methyl-2-(N,N-dipropylamino)-ethyl-BM123γ",0.3 mg./kg. of body weight
19,1-methyl-2-cyclohexylethyl-BM123γ,0.18 mg./kg. of body weight
20,1-methylbutyl-BM123γ,< 0.12 mg./kg. of body weight

# Same assay, conditions: Carworth Farms CF-1 mice, about 20 gm., infected intraperitoneally with lethal dose of E. coli US311 (10^-3 TSP dilution of 5 hour TSP blood culture), listed as 1-methyl-2,2-dimethylpropyl-BM123γ
row,Substance,ED50 (dose required to protect 50% of the mice against E. coli)
1,"1,2,2-trimethylpropyl-BM123γ",0.18 mg./kg. of body weight
